Source: a melting point compilation (Tetko et al.; mined from patent text by program, amines drawn as free bases though some values may be those of a salt)

SMILES	melting point
CCOC(=O)CC(=O)c1ccc([N+](=O)[O-])c(C)c1	48 to 50 °C
Cc1cc2c3c(c1)C(c1ccccc1)C(=O)N3CC(=O)N2 (stereo not given)	195 to 200 °C
CCOC(=O)C1=NS(=O)(=O)c2ccccc21	114 to 115 °C
CC(=CCCCC(C)(C)O)c1cccc(C=Cc2cc(O)cc(O)c2)c1	55 to 60 °C
CCN(CC)CCNc1ccc(C=O)c2sc3ccc(Br)cc3c(=O)c12	145 to 146 °C
Cc1ccccc1-c1cc(N2CCOCC2)ncc1C(N)=O	144 to 145 °C
O=c1c(-c2cccc(F)c2)c(CNc2ncnc3[nH]cnc23)oc2ccccc12	211 to 214 °C
CN1CC[C@@H]2CC(=O)c3cc(F)ccc3[C@H]2C1 (relative stereo)	> 250 °C
OC(Cn1cncn1)(c1ccc(Cl)cn1)c1ccc(Cl)cc1Cl (stereo not given)	149 to 150 °C
CN(C)CCCN=Cc1ccc2ccccc2c1	29 to 31 °C
NC1COc2ccccc2NC1=O (stereo not given)	65 to 70 °C
Fc1ccc(Cn2cnc3c(-c4ccco4)nc(Cl)nc32)cc1	152 to 155 °C
CC(C)n1c(=O)n(C)c(=O)c2cn(C3Cc4ccccc4C3)cc21	158 to 160 °C
CC(CNc1cc(Oc2ccc3c(C(=O)Nc4cc(C(C)(C)C)nn4-c4ccc(F)cc4)cccc3c2)ncn1)N(C)C (stereo not given)	190 to 193 °C
CCC(CC)Nc1c([N+](=O)[O-])cc(C)c(Cl)c1[N+](=O)[O-]	61 to 62.5 °C
CCCN=C1SC(=CC(=O)O)C(=O)N1CCC	101 to 103 °C
COc1ccc(S(=O)(=O)NCC2CCN(C[C@H]3COc4ccc(Cl)cc4O3)CC2)cc1OC	99 to 101 °C
Nc1ccccc1N1CCN(CCCCn2c(=O)[nH]c(=O)c3ccccc32)CC1	121 °C
OCC1OC(n2cnc3c(Nc4ccccc4)ncnc32)CC1F (stereo not given)	83 °C
COC(=O)CCC(C#N)(CCC(=O)OC)c1ccc(OC)c(OC2CCCC2)c1	81 to 82 °C
CC(C)(C)c1cc(-c2nn(-c3ccccc3)c3ncccc23)cc(C(C)(C)C)c1O	174 to 175 °C
CN(Cc1ccc(F)cc1)C1CCN(c2ccc(Cl)cc2)CC1	72 to 73 °C
O=C1OC(=O)c2cc(N3C(=O)CCCC3=O)ccc21	220 to 222 °C
CN(SSN(C)S(=O)(=O)c1ccccc1)S(=O)(=O)c1ccccc1	101 to 106 °C

SMILES	melting point
CC(C)CNc1nc2cc(Cl)c(Cl)cc2n1[C@H]1O[C@@H](CO)[C@H](O)[C@@H]1O	136 °C
COc1ccc2[nH]cc(CC(=O)N3CCN(c4ccc(N)cc4)CC3)c2c1	119 to 120 °C
c1ccc(COc2ccc(CCOc3ccc(CCNc4ncnc5nccnc45)cc3)cc2)cc1	120 to 122 °C
CN(C)c1ccc(C(=O)OC2=C([C@H]3CC[C@H](c4ccc(Cl)cc4)CC3)C(=O)c3ccccc3C2=O)cc1	117 to 121 °C
CCCCC1(CCCC)CS(=O)(=O)c2ccc(N(C)C)cc2C(c2ccc(OCC(=O)NCC(=O)O)cc2)C1O (stereo not given)	149 to 150 °C
CC(=O)c1nc2ccc(OCC(F)(F)C(F)F)cc2cc1O	119 to 121 °C
CC1CC(=O)NN=C1c1ccc(NC(=NC#N)NCCc2ccccc2)cc1 (stereo not given)	209 to 210 °C
O=[N+]([O-])c1ccc(Sc2ccc(Cl)cc2)nc1	134 to 136 °C
Cn1ccc2c1CCn1ccnc1C2=C1CCN(C2CCN(C(=O)c3cc(C(F)(F)F)cc(C(F)(F)F)c3)C(Cc3ccccc3)C2)CC1 (stereo not given)	133 °C
COC(=O)CCC(C)(C)c1ccc(OC)c(NC(=O)C[C@H]2O[C@H](c3cccc(OC)c3OC)c3cc(Cl)ccc3N(CC(C)(C)COC(C)=O)C2=O)c1	157 to 158 °C
CCCC(C)(Oc1ccccc1)C(=O)OC1CC(O)C=C2C=CC(C)C(CCC3CC(O)CC(=O)O3)C21 (mixture of isomers)	151 to 153 °C
FC(F)(F)c1ccnc(N2CCN(Cc3n[nH]c4ccccc34)CC2)c1	99 to 100 °C
CCOC(c1cccc2cccnc12)n1c(NC2CCN(C(CN)C(C)C)CC2)nc2ccccc21 (stereo not given)	202 °C
CC(C)(O)c1cc2cc(O)c(Cl)c(Cl)c2s1	171 to 173 °C
CN(C)C=NC(=O)c1nn(-c2ccccc2)c(=O)cc1Oc1ccccc1	175 to 176 °C
CCCCCCCCCOC1CCC(=O)N1 (stereo not given)	46 to 48 °C
O=c1c(Br)c(OCc2ccccc2Cl)ccn1Cc1ccccc1	143 to 146 °C
O=C(O)Cn1nnnc1S	110 to 111 °C
N#Cc1ccc(C(N2CCN(c3ncccn3)CC2)N2CCCC2=O)cc1 (stereo not given)	185 to 188 °C
CC(C)c1ccc(N(Cc2cnn(Cc3cccs3)c2)C(=O)C2CCCc3c(O)cccc32)cn1 (stereo not given)	125 to 129 °C
COc1ccc(C(=O)Nc2ccc(F)c(F)c2)cc1NC(=S)Nc1cc(Cl)cc(Cl)c1	180 to 183 °C
CCCC#Cc1cnc(-c2ccc(F)cc2)nc1	51 °C
NC(=O)c1ccc(C(F)(F)F)cc1N1CCc2nc(NS(=O)(=O)c3cc(C(F)(F)F)cc(C(F)(F)F)c3)sc2C1	225 to 228 °C
c1cc2ncc3c(n2n1)N(C1CCCC1)CC3	181 °C

SMILES	melting point
CC(=O)SC1NC(=O)C1C (stereo not given)	53 to 65 °C
O=C1Nc2ccc(-c3cccc([N+](=O)[O-])c3)cc2C2(CCCCC2)O1	245 to 246 °C
CCOC(=O)C1=COc2ccccc2O1	42 °C
CCCCCC1CCC(CCC2OCC(CCC)CO2)CC1 (stereo not given)	44 °C
CN1CCN(CCOc2cccc3c2c2cccc4c2n3C(c2ccccc2)CO4)CC1 (stereo not given)	57 °C
CCCC(CCC)n1nnc2c(Nc3c(Br)cc(OC)cc3OC)nc(C)cc21	140 to 141 °C
C(=C\c1cn(-c2ccccc2)nc1OCc1ccccc1)/c1cscn1	101 to 102 °C
C1CCc2c(c(N3CCCC3)nn3nnnc23)C1	272 to 273 °C
CSCCC(CS)NC(=O)OC(C)(C)C (stereo not given)	37 °C
CC(C)c1nccn1S(=O)(=O)c1c[nH]cn1	118 to 120 °C
CC(C)(C)C(NC(=O)c1ccc(Cl)cc1)NC(=NC#N)Nc1cccc(C(F)(F)F)c1 (stereo not given)	184 to 186 °C
COc1ccccc1NC(=O)Nc1nc(O)ncc1F	247 to 250 °C
COc1ccc(Oc2c(OC)cc([N+](=O)[O-])c3nccc(C)c23)cc1	158 to 160 °C
CC(=O)Oc1ccc(CI)cc1C(OC(C)=O)OC(C)=O	117 to 120 °C
O=C(OCc1ccccc1)c1ccc(OC(=O)c2ccc(O)cc2)cc1	137 to 138 °C
Cc1ccc(C(=O)NC(NC(=S)Nc2ccc(F)cc2)C(F)(F)F)cc1 (stereo not given)	208 to 210 °C
CC(C)(C)c1cnc(C(=O)Nc2cc(-c3cc(Nc4ccc(-c5ccncc5)nn4)c(=O)[nH]n3)ccc2F)cn1	> 300 °C
OCc1ccc(-c2cccnc2)o1	119 to 120 °C
Cc1ccn2c(=O)c(C(=O)NC3CCCC3)cnc2c1	220 to 222 °C
Cc1sc(C)c(Cc2nc3c(F)c(F)cc(F)c3s2)c1CC#N	145 to 146 °C
N#Cc1ccc(C=C2CCCN(C(=O)c3ccc(Cl)cc3)C2)cc1	> 210 °C
CC(=O)OCCOCCN1CCC(CNC(=O)[C@@H]2CCCN2S(=O)(=O)c2ccc(Cl)c(COc3cccc4c(-n5cncn5)cc(C)nc34)c2Cl)CC1	86 °C
